Reference: patent EP2132185B1, “PYRIMIDINYL-PIPERAZINES USEFUL AS DOPAMINE D3/D2 RECEPTOR LIGANDS” (Richter Gedeon Nyrt., priority 2007, dated 2008)

Columns and labels:
[1] = molecular target: T1, rat recombinant D3 receptors (Rattus norvegicus, UniProt P19020); test: D3 receptor binding ([3H]spiperone); settings: rat recombinant D3 receptors expressed in Sf9 cells
T1 construct: purchased Perkin-Elmer 6110139; host or cells: Sf9 cells

D2 receptor = molecular target: T2, D2 receptor (Rattus norvegicus, UniProt P61169); test: D2 receptor binding ([3H]spiperone, rat brain striatal membrane preparation); settings: for Ki: rat brain striatal membrane preparation, [3H]spiperone
T2 construct: on rat brain striatal membrane preparation; from tissue; host or cells: rat brain striatum membranes

Alpha-1 receptor = Alpha-1 receptor binding ([3H]-prazosine, rat cortical membrane preparation); settings: for Ki: rat cortical membrane preparation, [3H]-prazosine, read-out: α-1 Ki
male Wistar rats [2] = test: Amphetamine-induced hypermotility; type: in vivo; settings: Rattus norvegicus, 1 h, oral administration one hour before d-amphetamine 0.5 mg/kg sc., read-out: Inhibition of amphetamine-induced hypermotility (ED50, mg/kg)
Protocol: 4. Amphetamine-Induced Hypermotility
One hour after the oral administration of doses of the test compound or vehicle, male Wistar rats were subcutaneously treated with d-amphetamine (0.5 mg/kg, sc.) and were individually placed in activity cages for one hour. Locomotor activity was measured in a four-channel activity monitor equipped with infrared photobeams Horizontal movement was determined as the number of beam interruptions. Mean ± SE of horizontal activity data of each group was calculated. Percent inhibition of amphetamine-induced increase in locomotion was calculated for each dose of the tested compound. The ED-50 value was determined by linear regression fitted to the dose-response plot.

male Wistar rats [3] = test: Catalepsy test; type: in vivo, rat; settings: for Catalepsy (MED, mg/kg): oral treatment, rats, minimum effective (cataleptic) dose
male Wistar rats [4] = test: Scopolamine-induced learning disturbance in the water-labyrinth; type: in vivo, rat; settings: scopolamine 3 mg/kg ip., negative values mean further impairment
Protocol: 6. Scopolamine-Induced Learning Disturbance in the Water-Labyrinth
The learning process of rats was assessed in a 3-choice point water-labyrinth system. The number of directional turning errors was recorded in three daily trials for three experimental days. Male Wistar rats weighing 180-200 g (n=10 per groups) were treated orally with vehicle or the test compounds 1 hour before each daily session. Scopolamine (3 mg/kg ip.) as amnestic agent was injected 30 minutes prior to the first daily trial. Mean ± SE of errors committed in all the trials was calculated in each group. Percent inhibition of scopolamine-induced increase in the number of errors was calculated for each dose of the tested compound.

T1 sequence (P19020 whole entry): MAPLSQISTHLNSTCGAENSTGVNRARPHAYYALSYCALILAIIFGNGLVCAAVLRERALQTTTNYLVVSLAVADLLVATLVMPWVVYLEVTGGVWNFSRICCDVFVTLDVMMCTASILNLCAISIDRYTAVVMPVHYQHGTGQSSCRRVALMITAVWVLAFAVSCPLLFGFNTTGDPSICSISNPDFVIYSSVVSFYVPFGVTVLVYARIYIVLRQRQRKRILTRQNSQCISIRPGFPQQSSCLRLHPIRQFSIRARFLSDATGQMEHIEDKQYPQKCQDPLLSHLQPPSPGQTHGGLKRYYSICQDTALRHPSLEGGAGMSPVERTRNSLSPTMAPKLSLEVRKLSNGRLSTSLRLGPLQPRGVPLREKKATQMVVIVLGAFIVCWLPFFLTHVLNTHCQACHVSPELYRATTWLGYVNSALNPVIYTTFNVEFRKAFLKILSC
T2 sequence (P61169 whole entry): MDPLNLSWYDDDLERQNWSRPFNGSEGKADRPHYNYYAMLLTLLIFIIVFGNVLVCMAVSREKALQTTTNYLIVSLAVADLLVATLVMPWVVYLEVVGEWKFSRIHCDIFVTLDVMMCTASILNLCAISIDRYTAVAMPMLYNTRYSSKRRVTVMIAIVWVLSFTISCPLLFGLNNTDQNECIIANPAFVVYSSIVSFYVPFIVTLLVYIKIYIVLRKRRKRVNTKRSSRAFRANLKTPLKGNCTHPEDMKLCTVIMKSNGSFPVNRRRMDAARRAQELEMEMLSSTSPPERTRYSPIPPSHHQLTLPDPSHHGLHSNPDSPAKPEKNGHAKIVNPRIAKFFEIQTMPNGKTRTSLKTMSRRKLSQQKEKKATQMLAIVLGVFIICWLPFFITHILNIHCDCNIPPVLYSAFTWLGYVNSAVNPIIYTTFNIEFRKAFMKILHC

SMILES | Ki [1] [nM] | D2 Sel. (D2/D3 selectivity, i.e., Ki for D2 receptor divided by Ki for D3 receptor) (D2 receptor) | Ki (D2 receptor) [nM] | Ki (Alpha-1 receptor) [nM] | ED50 (male Wistar rats [2]) [mg/kg] | other results
CNc1nc(Cl)c(Cl)c(N2CCN(CC[C@H]3CC[C@H](NC(=O)N4CCOCC4)CC3)CC2)n1 [Compound 7, trans-morpholine-4-carboxylic acid (4-{2-[4-(5,6-dichloro-2-methylamino-pyrimidin-4-yl)-piperazin-1-yl]-ethyl}-cyclohexyl)-amide] | 1 to 3 |  |  | > 1000 |  | 
CCNc1nc(Cl)c(Cl)c(N2CCN(CC[C@H]3CC[C@H](NC(C)=O)CC3)CC2)n1 [Compound 6, trans-N-(4-{2-[4-(5,6-dichloro-2-ethylamino-pyrimidin-4-yl)-piperazin-1-yl]-ethyl}-cyclohexyl)-acetamide] | 1 to 3 | 23 | 15 to 50 | > 1000 |  | 
CNc1nc(Cl)c(Cl)c(N2CCN(CC[C@H]3CC[C@H](NC(C)=O)CC3)CC2)n1 [Compound 1, Tran-N-(4-{2-[4-(5,6-dichloro-2-methylamino-pyrimidin-4-yl)-piperazin-1-yl]-ethyl}-cyclohexyl)-acetamide] |  | 22 |  | > 1000 | 0.14 | TI (therapeutic index - catalepsy MED divided by amphetamine hypermotility ED50) (male Wistar rats [3]): 714; Catalepsy (MED, mg/kg) (male Wistar rats [3]): 100 mg/kg; % inhibition (male Wistar rats [4]; Dose 0.1 mg/kg orally): 36%; % inhibition (male Wistar rats [4]; Dose 0.2 mg/kg orally): 58%; % inhibition (male Wistar rats [4]; Dose 0.4 mg/kg orally): 61%; % inhibition (male Wistar rats [4]; Dose 0.8 mg/kg orally): 44%
Cc1nc2n(c(=O)c1CCN1CCC(c3noc4cc(F)ccc34)CC1)CCCC2 [Risperidone, reference compound] |  |  |  |  | 0.15 | α-1 Sel. (Alpha-1 receptor; selectivity column under α-1): 0.07; % inhibition (male Wistar rats [4]; Dose 0.5 mg/kg orally): -15%
Cc1cc2c(s1)Nc1ccccc1N=C2N1CCN(C)CC1 [Olanzapine, reference compound] |  |  |  |  | 1.8 | % inhibition (male Wistar rats [4]; Dose 1 mg/kg orally): -12%; % inhibition (male Wistar rats [4]; Dose 3 mg/kg orally): -49%

Continued, in another order:

Ki [1] [nM] | D2 Sel. (D2/D3 selectivity, i.e., Ki for D2 receptor divided by Ki for D3 receptor) (D2 receptor) | Ki (D2 receptor) [nM] | Ki (Alpha-1 receptor) [nM] | SMILES | ED50 (male Wistar rats [2]) [mg/kg] | other results
< 1 | 17 | 5 to 15 | > 1000 | CCNC(=O)N[C@H]1CC[C@H](CCN2CCN(c3nc(NC)nc(Cl)c3Cl)CC2)CC1 [Compound 10, Trans-1-(4-{2-[4-(5,6-dichloro-2-methylamino-pyrimidin-4-yl)-piperazin-1-yl]-ethyl}-cyclohexyl)-3-ethyl-urea] |  | 
< 1 | 43 | 5 to 15 | > 1000 | CCC(=O)NC1CCC(CCN2CCN(c3nc(NC)nc(Cl)c3Cl)CC2)CC1 (stereo not drawn) [Compound 11, trans-N-(4-{2-[4-(5,6-dichloro-2-methylamino-pyrimidin-4-yl)-piperazin-1-yl]-ethyl}-cyclohexyl-propionamide] |  | 
1 to 3 | 7 | 15 to 50 | > 1000 | CNc1nc(Cl)c(Cl)c(N2CCN(CCC3CCC(NC(=O)N(C)C)CC3)CC2)n1 (stereo not drawn) [Compound 8, trans-3-(4-{2-[4-(5,6-dichloro-2-methylamino-pyrimidin-4-yl)-piperazin-1-yl]-ethyl}-cyclohexyl-1,1-dimethyl-urea] | 0.14 | TI (therapeutic index - catalepsy MED divided by amphetamine hypermotility ED50) (male Wistar rats [3]): >179; Catalepsy (MED, mg/kg) (male Wistar rats [3]): >25 mg/kg; % inhibition (male Wistar rats [4]; Dose 0.025 mg/kg orally): 38%; % inhibition (male Wistar rats [4]; Dose 0.05 mg/kg orally): 65%; % inhibition (male Wistar rats [4]; Dose 1 mg/kg orally): 31%
1 to 3 | 27 | 15 to 50 | > 1000 | CNc1nc(Cl)c(Cl)c(N2CCN(CC[C@H]3CC[C@H](NC(N)=O)CC3)CC2)n1 [Compound 2, Trans-(4-{2-[4-(5,6-dichloro-2-methylamino-pyrimidin-4-yl)-piperazin-1-yl]-ethyl}-cyclohexyl)-urea] |  | 
